How the values were obtained:
[1] = tested on: C57BL/6 mice with LPS-induced systemic inflammation; test: Lung function in mice with LPS-induced systemic inflammation (Buxco); assay type: in vivo, mouse; details: FJU-C28 5 mg/kg, LPS 7.5 mg/kg, 24 hours
Description: Ten-week-old male C57BL/6 mice from BioLasco Taiwan Co., Ltd. (Taipei, Taiwan) were used in the present study. The mice were maintained under standard laboratory conditions as described in a previous study.^34 All animal procedures were approved by the Institutional Animal Care and Use Committee of Fu Jen Catholic University (IACUC approval number: A10508). We also confirmed that all experiments were performed in compliance with the ARRIVE guidelines. All surgeries were performed under anesthesia, and all efforts were made to minimize the pain and discomfort of the animals. The mice were randomly assigned to three groups: control (n=7), LPS (n=7) and LPS plus C28 (n=8). The mice were injected with/without FJU-C28 (5 mg/kg) dissolved in DMSO/PBS buffer, and after one hour the mice were stimulated with an intraperitoneal injection of LPS (7.5 mg/kg) in PBS buffer. At 24 hours after LPS stimulation, the mice were anesthetized i.p. with a mixture of ketamine (100 mg/kg) (Pfizer, New York, US) and xylazine (10 mg/kg) (Bayer, Leverkusen, Germany), endotracheally intubated with an airway catheter and connected to a forced pulmonary maneuver system (Buxco Research System; Buxco Electronics, Wilmington, NC). The detailed procedure was performed as described in a previous study.^34 The lung function values, including C chord (lung compliance), IC (inspiratory capacity), VC (vital capacity), FEV100 (forced expiratory volume at 100 ms) and FVC (forced vital capacity), were measured using a Buxco Research System. After the lung function assays, the experimental mice were sacrificed, and blood was collected by cardiac puncture. The lung lobes were inflated with 4% buffered paraformaldehyde via a catheter. Slides of lung specimens at a thickness of 5 μm were stained with hematoxylin and eosin for light microscopic analysis.
To evaluate the protective effect of FJU-C28 on lung function in mice with systemic inflammation induced by endotoxin, male C57BL/6 mice were administered LPS (7.5 mg/kg) and treated with/without FJU-C28 (5 mg/kg) for 24 hours; subsequently, lung function parameters were measured using a Buxco pulmonary function test system. […] However, treatment with FJU-C28 restored the LPS-induced decreases in lung function including VC (p<0.05), C chord, FEV100 (p<0.05), and FVC (p<0.05), compared to those of LPS-treated mice (FIG. 11). To confirm the status of LPS-induced lung injury in mice, histological examination of lung specimens was performed by H&E staining. […] To ascertain the correlation between target cytokines and lung injury, serum cytokines were measured by ELISA.

[2] = tested on: C57BL/6 mice with LPS-induced systemic inflammation; test: Histological examination of lung specimens (H&E); assay type: in vivo, mouse; details: FJU-C28 5 mg/kg, LPS 7.5 mg/kg, FIG. 12A
Description: Ten-week-old male C57BL/6 mice from BioLasco Taiwan Co., Ltd. (Taipei, Taiwan) were used in the present study. The mice were maintained under standard laboratory conditions as described in a previous study.^34 All animal procedures were approved by the Institutional Animal Care and Use Committee of Fu Jen Catholic University (IACUC approval number: A10508). We also confirmed that all experiments were performed in compliance with the ARRIVE guidelines. All surgeries were performed under anesthesia, and all efforts were made to minimize the pain and discomfort of the animals. The mice were randomly assigned to three groups: control (n=7), LPS (n=7) and LPS plus C28 (n=8). […] The detailed procedure was performed as described in a previous study.^34 The lung function values, including C chord (lung compliance), IC (inspiratory capacity), VC (vital capacity), FEV100 (forced expiratory volume at 100 ms) and FVC (forced vital capacity), were measured using a Buxco Research System. […]
To evaluate the protective effect of FJU-C28 on lung function in mice with systemic inflammation induced by endotoxin, male C57BL/6 mice were administered LPS (7.5 mg/kg) and treated with/without FJU-C28 (5 mg/kg) for 24 hours; subsequently, lung function parameters were measured using a Buxco pulmonary function test system. […]

## C=CCC1CC(Sc2ccccc2)=CC(=O)N1C(=O)C=C (stereo not drawn) [FJU-C28]
[1]; p<0.05 vs LPS-treated mice
  forced expiratory volume at 100 ms (FEV100): restored
  forced vital capacity (FVC): restored
  vital capacity (VC): restored
[1]; vs LPS-treated mice
  lung compliance (C chord): restored
[2]
  alveolar structure in lung tissue: sustained most of the alveolar structure
  neutrophil infiltration in the interstitium of the lung: reduced the neutrophil infiltration in the interstitium
